Earlier results as cited in patent publication US20090202995A1, “MOLECULAR CARDIOTOXICOLOGY MODELING” (priority 2005, published 2009).
Like-named read-outs stand apart in the source and are kept apart here.

How the values were obtained:
heart tissue [1] = tested on: heart tissue
heart tissue [2] = tested on: heart tissue; remark: listed apart in the source
heart tissue [3] = settings: known designation used to train the model, at the dose, time and route of Table 3
heart tissue [4] = settings: known designation used to train the model, at the dose, time and route of Table 3; remark: listed apart in the source
heart tissue [5] = settings: known designation used to train the model, at the dose, time and route of Table 3; remark: listed apart in the source
heart tissue [6] = tested on: heart tissue; remark: listed apart in the source
[7] = known tox (1) / non-tox (−1) designation used to train the model, at the dose, time and route of Table 3
[8] = known designation used to train the model, at the dose, time and route of Table 3

SMILES: Nc1nc2c(ncn2COCCO)c(=O)[nH]1 [Acyclovir]
- General (heart tissue [1]; [7]): −1
- Arrhythmia (heart tissue [2]; [8]): −1
- Heart Failure (heart tissue [3]): −1
- Andrenergic Agonist (heart tissue [4]): −1
- Vasculature Agent (heart tissue [5]): −1
- Myocardial Necrosis (heart tissue [6]; [8]): −1

SMILES: COc1cccc2c1C(=O)c1c(O)c3c(c(O)c1C2=O)C[C@@](O)(C(=O)CO)C[C@@H]3O[C@H]1C[C@H](N)[C@H](O)[C@H](C)O1 [Adriamycin]
- General (heart tissue [1]; [7]): 1
- Arrhythmia (heart tissue [2]; [8]): −1
- Heart Failure (heart tissue [3]): 1
- Andrenergic Agonist (heart tissue [4]): −1
- Vasculature Agent (heart tissue [5]): −1
- Myocardial Necrosis (heart tissue [6]; [8]): 1

SMILES: ClC(Cl)(Cl)Cl [CCl4]
- General (heart tissue [1]; [7]): −1
- Arrhythmia (heart tissue [2]; [8]): −1
- Heart Failure (heart tissue [3]): −1
- Andrenergic Agonist (heart tissue [4]): −1
- Vasculature Agent (heart tissue [5]): −1
- Myocardial Necrosis (heart tissue [6]; [8]): −1

SMILES: N.N.O=C([O-])C1(C(=O)[O-])CCC1.[Pt+2] [Carboplatin]
- General (heart tissue [1]; [7]): −1
- Arrhythmia (heart tissue [2]; [8]): −1
- Heart Failure (heart tissue [3]): −1
- Andrenergic Agonist (heart tissue [4]): −1
- Vasculature Agent (heart tissue [5]): −1
- Myocardial Necrosis (heart tissue [6]; [8]): −1

SMILES: N.N.[Cl][Pt][Cl] [Cisplatin]
- General (heart tissue [1]; [7]): 1
- Arrhythmia (heart tissue [2]; [8]): 1
- Heart Failure (heart tissue [3]): −1
- Andrenergic Agonist (heart tissue [4]): −1
- Vasculature Agent (heart tissue [5]): −1
- Myocardial Necrosis (heart tissue [6]; [8]): 1

SMILES: CC(C)(C)NCC(O)c1cc(Cl)c(N)c(Cl)c1 (stereo not shown) [Clenbuterol]
- General (heart tissue [1]; [7]): 1
- Arrhythmia (heart tissue [2]; [8]): 1
- Andrenergic Agonist (heart tissue [4]): 1
- Vasculature Agent (heart tissue [5]): 1
- Myocardial Necrosis (heart tissue [6]; [8]): 1

SMILES: O=P1(N(CCCl)CCCl)NCCCO1 (stereo not shown) [Cyclophosphamide]
- General (heart tissue [1]; [7]): 1
- Arrhythmia (heart tissue [2]; [8]): −1
- Heart Failure (heart tissue [3]): 1
- Andrenergic Agonist (heart tissue [4]): −1
- Vasculature Agent (heart tissue [5]): −1
- Myocardial Necrosis (heart tissue [6]; [8]): −1

SMILES: O=C1CN(/N=C/c2ccc(-c3ccc([N+](=O)[O-])cc3)o2)C(O)=N1 [Dantrolene]
- General (heart tissue [1]; [7]): 1
- Arrhythmia (heart tissue [2]; [8]): 1
- Heart Failure (heart tissue [3]): 1
- Andrenergic Agonist (heart tissue [4]): −1
- Myocardial Necrosis (heart tissue [6]; [8]): −1

SMILES: NCCc1ccc(O)c(O)c1 [Dopamine]
- General (heart tissue [1]; [7]): 1
- Arrhythmia (heart tissue [2]; [8]): 1
- Andrenergic Agonist (heart tissue [4]): 1
- Vasculature Agent (heart tissue [5]): −1
- Myocardial Necrosis (heart tissue [6]; [8]): −1

SMILES: CNC[C@H](O)c1ccc(O)c(O)c1 [Epinephrine]
- General (heart tissue [1]; [7]): 1
- Arrhythmia (heart tissue [2]; [8]): 1
- Heart Failure (heart tissue [3]): −1
- Andrenergic Agonist (heart tissue [4]): 1
- Vasculature Agent (heart tissue [5]): −1
- Myocardial Necrosis (heart tissue [6]; [8]): 1

SMILES: COc1cccc2c1C(=O)c1c(O)c3c(c(O)c1C2=O)C[C@@](O)(C(=O)CO)C[C@@H]3O[C@H]1C[C@H](N)[C@@H](O)[C@H](C)O1 [Epirubicin]
- General (heart tissue [1]; [7]): 1
- Arrhythmia (heart tissue [2]; [8]): 1
- Heart Failure (heart tissue [3]): 1
- Andrenergic Agonist (heart tissue [4]): −1
- Vasculature Agent (heart tissue [5]): −1
- Myocardial Necrosis (heart tissue [6]; [8]): −1

SMILES: NC(N)=Nc1nc(CSCCC(N)=NS(N)(=O)=O)cs1 [Famotidine]
- General (heart tissue [1]; [7]): 1
- Arrhythmia (heart tissue [2]; [8]): 1
- Heart Failure (heart tissue [3]): −1
- Andrenergic Agonist (heart tissue [4]): −1
- Vasculature Agent (heart tissue [5]): −1
- Myocardial Necrosis (heart tissue [6]; [8]): −1

SMILES: NNc1nncc2ccccc12 [Hydralazine]
- General (heart tissue [1]; [7]): 1
- Arrhythmia (heart tissue [2]; [8]): 1
- Heart Failure (heart tissue [3]): −1
- Andrenergic Agonist (heart tissue [4]): −1
- Vasculature Agent (heart tissue [5]): 1
- Myocardial Necrosis (heart tissue [6]; [8]): 1

SMILES: CC(C)NCC(O)c1ccc(O)c(O)c1 (stereo not shown) [Isoproterenol]
- General (heart tissue [1]; [7]): 1
- Arrhythmia (heart tissue [2]; [8]): 1
- Andrenergic Agonist (heart tissue [4]): 1
- Myocardial Necrosis (heart tissue [6]; [8]): 1

SMILES: Nc1cc(N2CCCCC2)nc(N)[n+]1[O-] [Minoxidil]
- General (heart tissue [1]; [7]): 1
- Arrhythmia (heart tissue [2]; [8]): 1
- Heart Failure (heart tissue [3]): 1
- Andrenergic Agonist (heart tissue [4]): −1
- Vasculature Agent (heart tissue [5]): 1
- Myocardial Necrosis (heart tissue [6]; [8]): 1

SMILES: C[C@H]1C(=O)O[C@@H]2CCN3CC=C(COC(=O)[C@](C)(O)[C@]1(C)O)[C@H]23 [Monocrotaline]
- General (heart tissue [1]; rat, in vivo): 1
- Arrhythmia (heart tissue [2]; rat, in vivo): −1
- Myocardial Necrosis (heart tissue [6]; rat, in vivo): −1

SMILES: NC[C@H](O)c1ccc(O)c(O)c1 [Norephinephrine]
- General (heart tissue [1]; [7]): 1
- Arrhythmia (heart tissue [2]; [8]): 1
- Heart Failure (heart tissue [3]): −1
- Andrenergic Agonist (heart tissue [4]): 1
- Myocardial Necrosis (heart tissue [6]; [8]): 1

SMILES: Fc1ccc([C@@H]2CCNC[C@H]2COc2ccc3c(c2)OCO3)cc1 [Paroxetine]
- General (heart tissue [1]; [7]): 1
- Arrhythmia (heart tissue [2]; [8]): 1
- Myocardial Necrosis (heart tissue [6]; [8]): −1

SMILES: N=C(N)c1ccc(OCCCCCOc2ccc(C(=N)N)cc2)cc1 [Pentamidine]
- General (heart tissue [1]; [7]): 1
- Arrhythmia (heart tissue [2]; [8]): 1
- Heart Failure (heart tissue [3]): −1
- Myocardial Necrosis (heart tissue [6]; [8]): −1

SMILES: CC(N)C(O)c1ccccc1 (stereo not shown) [Phenylpropanolamine]
- General (heart tissue [1]; [7]): 1
- Arrhythmia (heart tissue [2]; [8]): 1
- Heart Failure (heart tissue [3]): −1

SMILES: CN(CCOc1ccc(CC2SC(=O)NC2=O)cc1)c1ccccn1 (stereo not shown) [Rosiglitazone]
- General (heart tissue [1]; [7]): 1
- Heart Failure (heart tissue [3]): 1

SMILES: Cn1nnc2c(C(N)=O)ncn2c1=O [Temozolomide]
- General (heart tissue [1]; [7]): −1
- Arrhythmia (heart tissue [2]; [8]): −1
- Heart Failure (heart tissue [3]): −1
- Myocardial Necrosis (heart tissue [6]; [8]): −1
